The results in this text go back to patent publication US20020026659A1, “Developed seed and methods for making the same” (priority 1999, published 2002).

What all share (format): in vivo
One assay deals with Tomato Tumbler seeds. Description: Root elongation in germinating seeds with calcium effectors. The following applies: 5 days; for Root length: 6 mM EGTA or 5 mM manganese chloride, 25° C., water 6.5; for Root elongation, in words: 6 mM EGTA, 5 mM manganese chloride. The method, then:
(§1) To investigate other mechanisms that might disrupt calcium utilization by germinating seeds leading to adverse effects on root formation and elongation, a number of known calcium effectors were analyzed. EGTA is a well-known calcium-chelating compound which binds free calcium ions. The element, manganese, has been characterized to act as a calcium channel blocker in the cellular environment of the plasma membrane, thereby inhibiting uptake and utilization of calcium by the cell. Finally, auxins, like IBA, can disrupt calcium signaling pathways in the cell, thereby disrupting cellular developmental processes like rooting. For these experiments, seeds were germinated in the presence of these compounds, and the lengths of the roots (in mm) from 20 randomly-selected seeds (per treatment) were measured. These values were then compared to the lengths of the roots from 20 randomly-selected seeds germinated in water during the same time period and under the same environmental conditions.
Approximately 100 seeds of tomato (variety Tumbler commercially available from Ball Horticultural Company, 622 Town Road, West Chicago, Ill. 60185) were germinated in 125 mL Erlenmeyer flasks containing either 40 mL water, 6 mM EGTA or 5 mM manganese chloride at 25° C. in a lighted growth room on an orbital shaker. After 5 days, root lengths were measured and recorded (see Table 1 below).

The test system of assay [1] is Impatiens Dazzler ® Pink seeds. The assay is described as above. As to conditions: 6 mM EGTA, 5 days; for Root length: 5 mM manganese chloride or 8 ppm IBA, 25° C., 20 seeds, water 6.9; for Root growth, in words: 5 mM manganese chloride, 8 ppm IBA. The procedure:
as §1
Approximately 100 seeds of impatiens (variety Dazzler® Pink commercially available from Ball Horticultural Company, 622 Town Road, West Chicago, Ill. 60185) were germinated in 125 mL Erlenmeyer flasks containing either 40 mL water, 6 mM EGTA, 5 mM manganese chloride or 8 ppm IBA at 25° C. in a lighted growth room on an orbital shaker. After 5 days, root lengths were measured and recorded (see Table 1 below).

Assay [2] relates to Pansy Baby Bingo Sky Blue primed seeds. Described as above. The following applies: 5 days; for Inhibition of root length versus water-treated seeds: 6 mM EGTA, 5 mM manganese chloride; for Root length: primed, 6 mM EGTA or 5 mM manganese chloride, 25° C., water 10.3. The method, then:
as §1
Approximately 100 primed seeds of pansy (variety Baby Bingo Sky Blue commercially available from Ball Horticultural Company, 622 Town Road, West Chicago, Ill. 60185) were germinated in 125 mL Erlenmeyer flasks containing either 40 mL water, 6 mM EGTA or 5 mM manganese chloride at 25° C. in a lighted growth room on an orbital shaker. After 5 days, root lengths were measured and recorded (see Table 1 below).

A further assay has as its system Rice Cypress seeds. The description is as above. The following applies: 5 days; for Root length: 6 mM EGTA or 5 mM manganese chloride, 25° C., water 15.6. The method, then: as §1
Approximately 100 seeds of rice (variety Cypress obtained from LSU Rice Research Station) were germinated in 125 mL Erlenmeyer flasks containing either 40 mL water, 6 mM EGTA or 5 mM manganese chloride at 25° C. in a lighted growth room on an orbital shaker. After 5 days, root lengths were measured and recorded (see Table 1 below).

The subject of assay [3] is Pepper Holiday Flame seeds. The description is as above. The following applies: 5 days; for Root length: 6 mM EGTA or 5 mM manganese chloride, 25° C., water 6.5; for Root elongation, in words: 6 mM EGTA, 5 mM manganese chloride. The method, then:
as §1
Approximately 100 seeds of pepper (variety Holiday Flame commercially available from Ball Horticultural Company, 622 Town Road, West Chicago, Ill. 60185) were germinated in 125 mL Erlenmeyer flasks containing either 40 mL water, 6 mM EGTA or 5 mM manganese chloride at 25° C. in a lighted growth room on an orbital shaker. After 5 days, root lengths were measured and recorded (see Table 1 below).

The test system of assay [4] is germinating impatiens seeds. Briefly: Root development of germinating seeds with sucrose in nutrient medium. As to conditions: 1% (w/v) in the nutrient medium, liquid or solid environment. From the text: (§2) Also different, Arabidopsis, but not impatiens, root development was sensitive to an ammonium/potassium ionic imbalance in the nutrient medium.
The test system of another assay is Arabidopsis seeds. Described as above. The following applies: 1% (w/v) added to the nutrient medium.
Description: as §2

In assay [5] the test system is Vinca Coconut Cooler seeds. Description: Root elongation in germinating seeds with calcium effectors. As to conditions: 6 mM EGTA or 5 mM manganese chloride, 5 days, 25° C. The procedure: as §1
After 5 days, root lengths were measured and recorded (see Table 1 below).

On to `O=C(O)CN(CCOCCOCCN(CC(=O)O)CC(=O)O)CC(=O)O` [EGTA, ethylene glycol-bis (β-aminoethyl ether)-N,N,N′,N′-tetraacetic acid], for which the Root length in the assay with Tomato Tumbler seeds stood at 1.8 mm; in assay [1], 0.0 mm; in assay [2] it was 0.4 mm; in the assay on Rice Cypress seeds, 3.2 mm; in assay [3], 1.8 mm. Moreover, the entries for the “Root elongation, in words” value (with Tomato Tumbler seeds; in assay [3]) were “significantly inhibited” and “inhibited root elongation”, respectively. Besides, the “Root growth, in words” value in assay [1] was “totally inhibited”. Besides, the “Inhibition of root length versus water-treated seeds” value in assay [2] is on record as “an even greater extent”. Besides, the “Inhibition of root elongation” value with Rice Cypress seeds (6 mM EGTA) is recorded as around 80%.

Take `O=C(O)CCCc1c[nH]c2ccccc12` [IBA, indole-3-butyric acid]: in assay [1], the Root length worked out at 0.0 mm and the “Root growth, in words” value was “totally inhibited”.

As for `OC[C@H]1O[C@@](CO)(O[C@H]2O[C@H](CO)[C@@H](O)[C@H](O)[C@H]2O)[C@@H](O)[C@@H]1O` [sucrose], the “root development, in words” value in assay [4] is “severely inhibited”; with Arabidopsis seeds, “stimulate root development”.

On to manganese chloride, for which the Root length in assay [5] (water 12.3) is given as 3.0 mm; in assay [5] (water 12.3, listed as manganese), 3 mm; with Tomato Tumbler seeds, 4.4 mm; in assay [1], 0.2 mm; in assay [2], 1.9 mm; in the assay on Rice Cypress seeds it was 15.6 mm. Moreover, in assay [3], the Root length is given as 4.2 mm. Further, the “Root elongation, in words” value was “Modest inhibition” in the assay on Tomato Tumbler seeds, “no effect” with Rice Cypress seeds (5 mM manganese chloride) and “inhibited root elongation” in assay [3]. Besides, the “Root growth, in words” value in assay [1] was “Some minor root growth”. Further, the “Inhibition of root length versus water-treated seeds” value in assay [2] is 70-90%.
